Measurements from EP1071411B1, “TOPICAL IMMUNOSTIMULATION TO INDUCE LANGERHANS CELL MIGRATION” (TORREY PINES INSTITUTE FOR MOLECULAR STUDIES, priority 1998, dated 1999).

Columns and labels:
Langerhans cells = assay: FITC Langerhans cell migration screening, draining inguinal lymph node, flow cytometry; type: in vivo, C57BL/6 mice; conditions: for Total MHC class II^th cells, distance from the positive control, dibutylphthalate (DBP): 5 mg/ml FITC in acetone and migration inducer, 100 µl, after 2 days, Figure 7; for FITC+ Langerhans cell number / total dendritic cell migration into the lymph node / nonspecific immigration: agent added to topical FITC in acetone, 2 days after treatment, Figure 1
Text: Fluorescein isothiocyanate (FITC) has been used extensively by the inventor and others, to characterize Langerhans cell migration. FITC is a small (mw 389) non-peptide, largely lipophilic molecule, capable of crossing the stratum corneum. Immunogenicity of FITC is due to the reactivity of its isothiocyanate group (-N-C-S) with free amino groups, permitting it to be covalently bound to proteins and/or peptides. C57BL/6 mice received the following treatments: 1) none; 2) abdomen shaving only; 3) topical administration of FITC in acetone; 4) topical administration of FITC in acetone and olive oil; 5) topical administration of FITC in acetone and DMSO diluted in phosphate buffered saline (PBS); and 6) topical administration of FITC in acetone and dibutylphthalate. The draining inguinal lymph nodes were then examined for immigrant Langerhans cells by immunofluorescent flow cytometry each day thereafter. Migratory Langerhans cells were identified by the presence of FITC and expression of high MHC class II molecules or by a Langerhans cell-specific monoclonal antibody (NLDC-145). Other dendritic cell residents of the lymph nodes could also be differentiated using a dendritic cell-specific monoclonal antibody, 33D1. The uptake of FITC and the Langerhans cell response to migratory signals were observable in the draining lymph node as early as six hours after topical administration. However, 48-72 hours was required for maximal rate of immigration into the lymph node. Figure 1 illustrates the effect of the various treatment regimens on total and FITC + lymphoid dendritic cells 2 days after treatment. […] Thus, dibutylphthalate was a very potent migration inducer.
High numbers of FITC+ Langerhans cells were present in the lymph node by 12 hours and the peak frequency of immigrant FITC+ Langerhans cells occurred about 2 to 3 days following topical administration. […] The unlabeled dendritic cells were most likely Langerhans cells that had lost the FITC label. Five days after skin painting, the lymph node cell population had increased by approximately 7.2 fold over baseline levels.
Compounds which are useful as inducers of Langerhans cell migration may be screened using the standard FITC methods described for the data presented in Figures 1-3. C57BL6 mice are shaved on their abdomens and painted with 100 µl test solution, containing 5 mg/ml FITC in a 50150 (v/v) mixture of acetone and the migration inducer (e.g. dibutylphthalate). After 2 days, the draining inguinal lymph node is removed and the total number of dendritic cells (both FITC+ and FITC-) is determined by flow cytometry and MHC class II immunoassay.

EL4 tumor cells = assay: Specificity control of intravaginal topical vaccination, parent tumor challenge; type: in vivo, C57BL/6; conditions: intravaginal topical application, SIINFEKL in acetone and dibutylphthalate; Figure 5
Text: (§1) The C57BL/6 thymoma tumor cell line, EL4, was transfected with the complete gene for chicken ovalbumin (OVA). The resulting transfected cell line, EG7-OVA, expresses chicken ovalbumin. […] Based on the positive results using FITC, the inventors followed a similar protocol in an attempt to induce immunity to the EG7-OVA tumor by topical administration of the well-characterized, synthetic […] tumor-associated peptide.
(§2) The mucous membranes lack the tough barrier posed by the stratum corneum. […] The EL4 parent tumor cell line, lacking chicken ovalbumin, was used as a […]; no immunity against the EL4 tumor cells was seen. Thus, the inventors' hypothesis regarding penetration of the stratum corneum was confirmed; the […] peptide was not reaching the Langerhans cells underlying the stratum corneum.

EG7-OVA cells = assay: Tumor-specific immunity after topical vaccination, subcutaneous tumor challenge, tumor size; type: in vivo, C57BL/6; conditions: for inhibiting tumor cell growth: Figure 4
Description: as §1
C57BU6 mice were treated as follows: 1) shaving alone; 2) topical administration of acetone and dibutylphthalate; 3) […] (240 :g/ml) in DMSO diluted in PBS, followed in 5 hours by acetone and dibutylphthalate; and 4) […] (240 :g/ml) in acetone and dibutylphthalate. All mice were subsequently injected subcutaneously with 5 × 10^5 EG7-OVA cells (5-times the minimal tumorogenic dose). Tumor-specific immunity was monitored by measuring tumor size.
as §2
While intravaginal topical administration of tumor antigen provided an effective means of routing antigen to the Langerhans cells for subsequent induction of tumor-specific immunity, mucous membrane application sites, like the vagina, are not well-suited for convenient use and monitoring by general practitioners likely to be involved in administering the topical vaccinations of the present invention. Thus, to enhance the effectiveness of cutaneous topical administration, […] was dissolved in DMSO and applied to the skin without dilution. Dibutylphthalate in acetone was applied to the same site 5 hr later. All mice were subsequently injected subcutaneously with 5 x 10^5 EG7-OVA cells. The results shown in Figure 6 indicate that the peptide in DMSO was able to traverse the stratum corneum, effectively gaining access to the Langerhans cells. Tumor growth was suppressed after 6 to 9 days and even the established tumors were completely eliminated by 16 days post-inoculation. Thus, the tumor specific peptide, […], in concentrated DMSO, penetrated the stratum corneum, was incorporated into the MHC class I molecule K^b on epidermal Langerhans cells, and in the presence of the migration inducer, dibutylphthalate, was effectively presented to CD8+ CTLs in the lymph nodes.

[1] = iontophoresis; cited from earlier work

CCCCOC(=O)[C@@H](O)[C@H](O)C(=O)OCCCC [DBT, dibutyl-D-tartrate]
Total MHC class II^th cells, distance from the positive control, dibutylphthalate (DBP) (Langerhans cells): ≤ 1 standard deviation

CC[C@H](C)[C@H](NC(=O)[C@@H](NC(=O)[C@@H](N)CO)[C@@H](C)CC)C(=O)N[C@@H](CC(N)=O)C(=O)N[C@@H](Cc1ccccc1)C(=O)N[C@@H](CCC(=O)O)C(=O)N[C@@H](CCCCN)C(=O)N[C@@H](CC(C)C)C(=O)O
immunity against the EL4 tumor cells (EL4 tumor cells): no immunity
inhibiting tumor cell growth (EG7-OVA cells; cutaneous, SIINFEKL (240 :g/ml) in DMSO diluted in PBS, followed in 5 hours by acetone and dibutylphthalate): none of the treatment protocols were effective
inhibiting tumor cell growth (EG7-OVA cells; cutaneous, SIINFEKL (240 :g/ml) in acetone and dibutylphthalate): none of the treatment protocols were effective
time by which established tumors were completely eliminated (EG7-OVA cells; cutaneous, SIINFEKL in undiluted DMSO, dibutylphthalate in acetone at same site 5 hr later, Figure 6): ≤ 16 days post-inoculation
protection against the tumor (EG7-OVA cells; intravaginal topical application, SIINFEKL in acetone and dibutylphthalate, Figure 5): complete protection

Fluorescein isothiocyanate [FITC]
time required for maximal rate of immigration into the lymph node (Langerhans cells; after topical administration): 48 to 72 h

CCCCOC(=O)c1ccccc1C(=O)OCCCC [dibutylphthalate]
FITC+ Langerhans cell number (Langerhans cells): striking effect
total dendritic cell migration into the lymph node / nonspecific immigration (Langerhans cells): striking effect
inhibiting tumor cell growth (EG7-OVA cells; cutaneous topical acetone and dibutylphthalate without peptide, 5 × 10^5 EG7-OVA cells s.c.): none of the treatment protocols were effective

CC12CCC(CC1=O)C2(C)C (stereo not shown) [C, camphor]
Total MHC class II^th cells, distance from the positive control, dibutylphthalate (DBP) (Langerhans cells): ≤ 1 standard deviation

CCCCCCCCCOC(=O)c1ccccc1C(=O)OCCCCCCCCC [DNP, dinonylphthalate]
Total MHC class II^th cells, distance from the positive control, dibutylphthalate (DBP) (Langerhans cells): ≤ 1 standard deviation

C[S+](C)[O-] [DMSO, dimethylsulfoxide]
FITC+ Langerhans cell number (Langerhans cells): no enhancement
total dendritic cell migration into the lymph node / nonspecific immigration (Langerhans cells): modest stimulatory effect

dibenzylbutylphthalate [DBBP]
Total MHC class II^th cells, distance from the positive control, dibutylphthalate (DBP) (Langerhans cells): ≤ 1 standard deviation

NC(=O)CC[C@@H]1NC(=O)[C@H](Cc2ccccc2)NC(=O)[C@H](Cc2ccc(O)cc2)NC(=O)[C@@H](N)CSSC[C@@H](C(=O)N2CCC[C@H]2C(=O)N[C@@H](CCCN=C(N)N)C(=O)NCC(N)=O)NC(=O)[C@H](CC(N)=O)NC1=O [vassopressin]
fraction that crossed the stratum corneum [1]: about 0.4 % per hour
